The compounds below were run against human GSK3β (Homo sapiens, UniProt P49841) (assay: Screening for GSK3 inhibitory activity using a cell-free assay). Conditions: read-out: IC50 with respect to GSK3.
Format: biochemical
Procedure, shortened: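 Radiometric cell-free assay with recombinant human GSK3β phosphorylating a biotinylated peptide substrate for 3 h. Reactions were stopped with 50 μM ATP/20 mM EDTA and captured on streptavidin plates. Incorporated radiolabel was counted by scintillation and plotted against compound concentration.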

human GSK3β, sequence (P49841 whole entry): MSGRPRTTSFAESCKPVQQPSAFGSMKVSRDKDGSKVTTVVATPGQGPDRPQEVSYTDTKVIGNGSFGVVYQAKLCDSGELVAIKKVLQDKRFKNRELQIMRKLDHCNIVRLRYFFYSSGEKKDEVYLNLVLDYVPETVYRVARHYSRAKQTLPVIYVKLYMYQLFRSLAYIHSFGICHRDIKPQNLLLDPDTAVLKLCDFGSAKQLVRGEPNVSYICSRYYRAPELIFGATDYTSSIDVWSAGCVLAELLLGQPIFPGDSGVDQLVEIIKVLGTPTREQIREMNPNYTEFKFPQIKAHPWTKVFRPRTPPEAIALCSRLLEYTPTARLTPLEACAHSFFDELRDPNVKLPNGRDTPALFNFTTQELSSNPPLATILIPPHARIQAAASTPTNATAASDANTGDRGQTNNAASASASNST

| Compound | IC50 [µM] |
| --- | --- |
| CCOC(=O)c1cnc(NCCc2ccccn2)nc1-c1ccc(OC)cc1 [ethyl 4-(4-methoxyphenyl)-2-[(2-(2-pyridyl)ethyl)amino]pyrimidine-5-carboxylate] | ≤ 10 |
| CCOC(=O)c1cnc(NCCNc2ccc([N+](=O)[O-])cn2)nc1-c1cc(C(F)(F)F)cc(C(F)(F)F)c1 [ethyl 4-[3,5-bis(trifluoromethyl)-phenyl]-2-({2-[(5-nitro(2-pyridyl))amino]ethyl}amino)pyrimidine-5-carboxylate] | ≤ 10 |
| COC(=O)c1cnc(NCCNc2ccc([N+](=O)[O-])cn2)nc1-c1cccnc1 [methyl 2-({2-[(5-nitro(2-pyridyl))amino]ethyl}amino)-4-(3-pyridyl)pyrimidine-5-carboxylate] | ≤ 10 |
| O=[N+]([O-])c1ccc(NCCNc2nccc(-c3cnccn3)n2)nc1 [{2-[(5-nitro(2-pyridyl))amino]ethyl}(4-pyrazin-2-ylpyrimidin-2-yl)amine] | ≤ 10 |
| O=[N+]([O-])c1ccc(NCCNc2ncc([N+](=O)[O-])c(-c3ccccc3)n2)nc1 [{2-[(5-nitro(2-pyridyl))amino]ethyl}(5-nitro-4-phenylpyrimidin-2-yl)amine] | ≤ 1 |
| O=[N+]([O-])c1ccc(NCCNc2ccc([N+](=O)[O-])c(NCc3ccccc3)n2)nc1 [{2-[(5-nitro(2-pyridyl))amino]ethyl}{5-nitro-6-[benzylamino](2-pyridyl)}amine] | ≤ 10 |
| Cc1c[nH]c(-c2cnc(NCCNc3ccc([N+](=O)[O-])c(N)n3)nc2-c2ccc(Cl)cc2Cl)n1 [{2-[(6-amino-5-nitro(2-pyridyl))amino]-ethyl}[4-(2,4-dichlorophenyl)-5-(4-methylimidazol-2-yl)pyrimidin-2-yl]amine] | ≤ 1 |
| Nc1nc(NCCNc2ncc(N3CCNCC3)c(-c3ccc(Cl)cc3Cl)n2)ccc1[N+](=O)[O-] [{2-[(6-amino-5-nitro(2-pyridyl))amino]-ethyl}[4-(2,4-dichlorophenyl)-5-piperazinylpyrimidin-2-yl]amine] | ≤ 1 |
| Cn1ccnc1-c1cnc(NCCNc2ccc([N+](=O)[O-])c(N)n2)nc1-c1ccc(Cl)cc1Cl [{2-[(6-amino-5-nitro(2-pyridyl))amino]ethyl}[4-(2,4-dichlorophenyl)-5-(1-methylimidazol-2-yl)pyrimidin-2-yl]amine] | ≤ 1 |
| CN1CCN(c2cnc(NCCNc3ccc([N+](=O)[O-])c(N)n3)nc2-c2ccc(Cl)cc2Cl)CC1 [{2-[(6-amino-5-nitro(2-pyridyl))amino]ethyl}[4-(2,4-dichlorophenyl)-5-(4-methylpiperazinyl)-pyrimidin-2-yl]amine] | ≤ 1 |
| Nc1nc(NCCNc2ncc(-n3cnc(-c4ccccc4)c3)c(-c3ccc(Cl)cc3Cl)n2)ccc1[N+](=O)[O-] [{2-[(6-amino-5-nitro(2-pyridyl))amino]ethyl}[4-(2,4-dichlorophenyl)-5-(4-phenylimidazolyl)pyrimidin-2-yl]amine] | ≤ 1 |
| Nc1nc(NCCNc2ncc(-c3ccncc3)c(-c3ccc(Cl)cc3Cl)n2)ccc1[N+](=O)[O-] [{2-[(6-amino-5-nitro(2-pyridyl))amino]ethyl}[4-(2,4-dichlorophenyl)-5-(4-pyridyl)pyrimidin-2-yl]amine] | ≤ 1 |
| Nc1nc(NCCNc2ncc(CN3CCOCC3)c(-c3ccc(Cl)cc3Cl)n2)ccc1[N+](=O)[O-] [{2-[(6-amino-5-nitro(2-pyridyl))amino]ethyl}[4-(2,4-dichlorophenyl)-5-(morpholin-4-ylmethyl)pyrimidin-2-yl]amine] | ≤ 1 |
| Nc1nc(NCCNc2ncc(N3CCOCC3)c(-c3ccc(Cl)cc3Cl)n2)ccc1[N+](=O)[O-] [{2-[(6-amino-5-nitro(2-pyridyl))amino]ethyl}[4-(2,4-dichlorophenyl)-5-morpholin-4-yl-pyrimidin-2-yl]amine] | ≤ 1 |
| Cc1c[nH]c(-c2cnc(NCCNc3ccc([N+](=O)[O-])c(N)n3)nc2-c2ccc(F)cc2Cl)n1 [{2-[(6-amino-5-nitro(2-pyridyl))amino]ethyl}[4-(2-chloro-4-fluorophenyl)-5-(4-methylimidazol-2-yl)pyrimidin-2-yl]amine] | ≤ 1 |
| Nc1nc(NCCNc2ncc(-c3ncc[nH]3)c(-c3ccc(F)cc3Cl)n2)ccc1[N+](=O)[O-] [{2-[(6-amino-5-nitro(2-pyridyl))amino]ethyl}[4-(2-chloro-4-fluorophenyl)-5-imidazol-2-ylpyrimidin-2-yl]amine] | ≤ 1 |
| Nc1nc(NCCNc2ncc(-c3ncc[nH]3)c(-c3ccccc3Cl)n2)ccc1[N+](=O)[O-] [{2-[(6-amino-5-nitro(2-pyridyl))amino]ethyl}[4-(2-chlorophenyl)-5-imidazol-2-ylpyrimidin-2-yl]amine] | ≤ 1 |

Other lines, results leading:

| IC50 [µM] | Compound |
| --- | --- |
| ≤ 1 | CCOC(=O)c1cnc(NCCNc2ccc([N+](=O)[O-])cn2)nc1-c1ccc(OC)cc1 [ethyl 4-(4-methoxyphenyl)-2-({2-[(5-nitro(2-pyridyl))amino]ethyl}amino)pyrimidine-5-carboxylate] |
| ≤ 1 | CCOC(=O)c1cnc(NCCNc2ccc([N+](=O)[O-])cn2)nc1-c1ccc(C)cc1 [ethyl 4-(4-methylphenyl)-2-({2-[(5-nitro(2-pyridyl))amino]ethyl}amino)pyrimidine-5-carboxylate] |
| ≤ 1 | CCOC(=O)c1cnc(NCCNc2ccc([N+](=O)[O-])cn2)nc1-c1ccc(SC)cc1 [ethyl 4-(4-methylthiophenyl)-2-({2-[(5-nitro(2-pyridyl))amino]ethyl}amino)pyrimidine-5-carboxylate] |
| ≤ 10 | CCOC(=O)c1cnc(NCCNc2ccc([N+](=O)[O-])cn2)nc1-c1cncc(Br)c1 [ethyl 4-(5-bromo(3-pyridyl))-2-({2-[(5-nitro(2-pyridyl))amino]ethyl}amino)pyrimidine-5-carboxylate] |
| ≤ 1 | CCOC(=O)c1cnc(NCCNc2ccc([N+](=O)[O-])cn2)nc1-c1ccc(N2CCOCC2)nc1 [ethyl 4-(6-morpholin-4-yl(3-pyridyl))-2-({2-[(5-nitro(2-pyridyl))amino]-ethyl}amino)pyrimidine-5-carboxylate] |
| ≤ 10 | CCOC(=O)c1ccc(-c2ccnc(NCCNc3ccc([N+](=O)[O-])cn3)n2)cc1 [ethyl 4-[2-({2-[(5-nitro-2-pyridyl)amino]ethyl}amino)pyrimidin-4-yl]benzoate] |
| ≤ 10 | CCOC(=O)c1cnc(NCCNc2ccc([N+](=O)[O-])cn2)nc1-c1ccc(N(CC)CC)cc1 [ethyl 4-[4-(diethylamino)phenyl]-2-({2-[(5-nitro(2-pyridyl))amino]ethyl}-amino)pyrimidine-5-carboxylate] |
| ≤ 1 | CCOC(=O)c1cnc(NCCNc2ccc([N+](=O)[O-])cn2)nc1-c1ccc(N(C)C)cc1 [ethyl 4-[4-(dimethylamino)phenyl]-2-({2-[(5-nitro(2-pyridyl))amino]ethyl}-amino)pyrimidine-5-carboxylate] |
| ≤ 1 | CCOC(=O)c1cnc(NCCNc2ccc([N+](=O)[O-])cn2)nc1-c1ccc(S(C)(=O)=O)cc1 [ethyl 4-[4-(methyl-sulfonyl)phenyl]-2-({2-[(5-nitro(2-pyridyl))amino]ethyl}amino)pyrimidine-5-carboxylate] |
| ≤ 1 | CCOC(=O)c1cnc(NCCNc2ccc([N+](=O)[O-])cn2)nc1-c1ccc(C(C)(C)C)cc1 [ethyl 4-[4-(tert-butyl)-phenyl]-2-({2-[(5-nitro(2-pyridyl))amino]ethyl}amino)pyrimidine-5-carboxylate] |
| ≤ 10 | CCOC(=O)c1cnc(NCCNc2ccc([N+](=O)[O-])cn2)nc1Nc1ccc(Cl)cc1Cl [ethyl 4-[(2,4-dichlorophenyl)amino]-2-({2-[(5-nitro(2-pyridyl))amino]-ethyl}amino)pyrimidine-5-carboxylate] |
| ≤ 10 | CCOC(=O)c1cnc(NCCNc2ccc([N+](=O)[O-])cn2)nc1NCc1ccccc1Cl [ethyl 4-{[(2-chlorophenyl)methyl]amino}-2-({2-[(5-nitro(2-pyridyl))amino]ethyl}amino)pyrimidine-5-carboxylate] |
| ≤ 10 | CCOC(=O)c1cnc(NCCNc2ccc([N+](=O)[O-])cn2)nc1NCc1cccc(Br)c1 [ethyl 4-{[(3-bromophenyl)methyl]amino}-2-({2-[(5-nitro(2-pyridyl))amino]ethyl}amino)pyrimidine-5-carboxylate] |
| ≤ 1 | CCOC(=O)c1cnc(NCCNc2ccc([N+](=O)[O-])cn2)nc1NCc1ccc(C#N)cc1 [ethyl 4-{[(4-cyanophenyl)methyl]amino}-2-({2-[(5-nitro(2-pyridyl))amino]-ethyl}amino)pyrimidine-5-carboxylate] |
| ≤ 1 | CCOC(=O)c1cnc(NCCNc2ccc([N+](=O)[O-])cn2)nc1-c1ccc(N2CCOCC2)cc1 [ethyl-4-(morpholin-4-ylphenyl)-2-({2-[(5-nitro(2-pyridyl))amino]ethyl}amino)pyrimidine-5-carboxylate] |
| ≤ 1 | COC(=O)c1cnc(NCCNc2ccc([N+](=O)[O-])cn2)nc1-c1ccc(C#N)cc1 [methyl 4-(4-cyanophenyl)-2-({2-[(5-nitro(2-pyridyl))amino]ethyl}amino)pyrimidine-5-carboxylate] |
| ≤ 10 | CCOC(=O)c1cnc(NCCNc2ccc(C(=O)OC)cn2)nc1-c1ccc(C#N)cc1 [methyl 6-[(2-{[4-(4-cyanophenyl)-5-(ethoxycarbonyl)pyrimidin-2-yl]amino}ethyl)amino]pyridine-3-carboxylate] |
| ≤ 1 | N#Cc1ccc(-c2nc(NCCNc3ccc([N+](=O)[O-])cn3)ncc2C(=O)OCc2ccccc2)cc1 [phenylmethyl 4-(4-cyanophenyl)-2-({2-[(5-nitro(2-pyridyl))amino]ethyl}amino)pyrimidine-5-carboxylate] |
| ≤ 1 | CC(C)(C)OC(=O)c1cnc(NCCNc2ccc([N+](=O)[O-])cn2)nc1-c1ccc(C#N)cc1 [tert-butyl 4-(4-cyanophenyl)-2-({2-[(5-nitro(2-pyridyl))amino]-ethyl}amino)pyrimidine-5-carboxylate] |
| ≤ 10 | CCOC(=O)c1cnc(NCCNc2ccc(C(=O)OC(C)(C)C)cn2)nc1-c1ccc(C#N)cc1 [tert-butyl 6-[(2-{[4-(4-cyanophenyl)-5-(ethoxycarbonyl)pyrimidin-2-yl]amino}ethyl)amino]pyridine-3-carboxylate] |
